According to patent publication US20230002373A1, “COMPOUNDS AND COMPOSITIONS FOR TREATING CONDITIONS ASSOCIATED WITH STING ACTIVITY” (IFM Due, Inc., priority 2019, published 2023):

target: T1, hSTING (Homo sapiens, UniProt Q86WV6, G230A/H232R/R293Q/R71H); assay: STING reporter assay (luciferase) in THP1-Dual KO-IFNAR2 cells stimulated with 2′3′cGAMP; type: cell-based; conditions: 15 μM 2′3′cGAMP, 24 h, class symbols
T1 construct: host or cells: THP1-Dual KO-IFNAR2 cells
Experimental: STING pathway activation by the compounds described herein was measured using THP1-Dual™ cells (KO-IFNAR2).
THP1-Dual™ KO-IFNAR2 Cells (obtained from invivogen) were maintained in RPMI, 10% FCS, 5 ml P/S, 2 mM L-glut, 10 mM Hepes, and 1 mM sodium pyruvate. Compounds were spotted in empty 384 well tissue culture plates (Greiner 781182) by Echo for a final concentration of 0.0017-100 μM. Cells were plated into the TC plates […], 2×10E6 cells/mL. For activation with STING ligand, 2′3′cGAMP (MW 718.38, obtained from Invivogen), was prepared in Optimem media.
The following solutions were prepared for each 1×384 plate: • Solution A: 2 mL Optimem with one of the following stimuli: • 60 μL of 10 mM 2′3′cGAMP->150 μM stock • Solution B: 2 mL Optimem with 60 μL Lipofectamine 2000->Incubate 5 min at RT
2 mL of solution A and 2 ml Solution B was mixed and incubated for 20 min at room temperature (RT). 20 uL of transfection solution (A+B) was added on top of the plated cells, with a final 2′3′cGAMP concentration of 15 μM. The plates were then centrifuged immediately at 340 g for 1 minute, after which they were incubated at 37° C., 5% CO2, >98% humidity for 24 h. Luciferase reporter activity was then measured. EC50 values were calculated by using standard methods known in the art.
Luciferase reporter assay: 10 μL of supernatant from the assay was transferred to white 384-plate with flat bottom and squared wells. One pouch of QUANTI-Luc™ Plus was dissolved in 25 mL of water. 100 μL of QLC Stabilizer per 25 mL of QUANTI-Luc™ Plus solution was added. 50 μL of QUANTI-Luc™ Plus/QLC solution per well was then added. Luminescence was measured on a Platereader (e.g., Spectramax I3X (Molecular Devices GF3637001)).
Luciferase reporter activity was then measured. EC50 values were calculated by using standard methods known in the art.

T1 sequence (Q86WV6 whole entry R71H/G230A/H232R/R293Q): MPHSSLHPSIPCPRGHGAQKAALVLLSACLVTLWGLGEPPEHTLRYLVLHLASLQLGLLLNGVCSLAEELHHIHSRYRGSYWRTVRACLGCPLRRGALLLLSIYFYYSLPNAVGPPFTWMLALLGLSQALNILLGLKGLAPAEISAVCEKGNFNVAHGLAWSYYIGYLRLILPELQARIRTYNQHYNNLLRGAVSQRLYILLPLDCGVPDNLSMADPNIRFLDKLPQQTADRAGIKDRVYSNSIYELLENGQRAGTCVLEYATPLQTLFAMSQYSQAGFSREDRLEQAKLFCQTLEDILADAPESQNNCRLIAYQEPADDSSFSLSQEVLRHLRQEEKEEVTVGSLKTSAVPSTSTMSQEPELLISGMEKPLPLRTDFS

**Q.** Which EC50 does the source give for `Cc1ccccc1N1C2CCC1CC(NC(=O)C(=O)Nc1c[nH]c3ncc(F)cc13)C2` (stereo not drawn) [Compound 209, N-[5-fluoro-1H-pyrrolo[2,3-b]pyridin-3-yl]-N′-[8-(2-methylphenyl)-8-azabicyclo[3.2.1]octan-3-yl]ethanediamide] here?
**A.** 1000 to 5000 nM

**Q.** For `O=C(Nc1ccc(C2CCCCC2)cn1)C(=O)Nc1c[nH]c2ccc(Br)nc12` [Compound 210], which EC50 is on record?
**A.** 200 to 1000 nM

**Q.** With `O=C(NCc1ccc(OC(F)(F)F)c(Cl)c1)C(=O)Nc1c[nH]c2ccncc12` [Compound 211] as the compound, how does the EC50 read?
**A.** 200 to 1000 nM

**Q.** With `O=C(NCc1ccc(Cl)c(OC(F)(F)F)c1)C(=O)Nc1c[nH]c2ccncc12` [Compound 212] as the compound, how does the EC50 read?
**A.** 200 to 1000 nM

**Q.** `Cc1cc(CNC(=O)C(=O)Nc2c[nH]c3cnccc23)ccc1C(F)(F)F` [Compound 213] was tested. Which EC50 did it give?
**A.** 1000 to 5000 nM

**Q.** `COc1cc2c(NC(=O)C(=O)NCc3ccc(C)c(C(F)(F)F)c3)c[nH]c2cn1` [Compound 214] was tested. Which EC50 did it give?
**A.** 1000 to 5000 nM

**Q.** With `COc1ccc2[nH]cc(NC(=O)C(=O)NCc3ccc(C)c(C(F)(F)F)c3)c2n1` [Compound 215] as the compound, how does the EC50 read?
**A.** 200 to 1000 nM

**Q.** `O=C(Nc1ccc(C(F)(F)F)c(Cl)c1)C(=O)Nc1c[nH]c2ccncc12` [Compound 216] was tested. Which EC50 did it give?
**A.** 200 to 1000 nM

**Q.** For `O=C(Nc1ccc(C(F)(F)F)c(Cl)c1)C(=O)Nc1c[nH]c2cccnc12` [Compound 217], which EC50 is on record?
**A.** 1000 to 5000 nM
